Experimental data from paper PMC4686872 (European journal of medicinal chemistry, 2015).
Converted amounts (≈) assume the structure as drawn. Where two headings read alike, the source gives them in different places. Blank lines part the entries; values can stand above or below the compound they belong to.

What was measured:
[1] = test system: MRSA; test: Broth microdilution MIC against MRSA, summarised over the strains tested; type: cell-based, Staphylococcus aureus; conditions: for MIC: Staphylococcus aureus, MRSA, read-out: MIC against MRSA; for antimicrobial activity against MRSA (in words): strains as named in the sentence
[2] = test system: MRSA USA300; test: Minimum bactericidal concentration
[3] = test system: VRSA (VRS2); test: Broth microdilution MIC, VRSA VRS2; type: cell-based, Staphylococcus aureus; conditions: vancomycin-resistant S. aureus VRS2
[4] = test system: murine macrophage (J774) cell line; test: MTS cytotoxicity assay
[5] = Kinetic solubility screen in PBS; type: physicochemical
[6] = test system: Caco-2 bilayer; test: Caco-2 permeability assay
[7] = test system: Caco-2 bilayer
[8] = in vitro; conditions: human, Caco-2
[9] = 64 µM / up to a concentration of 64 µM
[10] = 128 µM (data not presented), all toxic, exception = not toxic

MIC [1]: 8 to 64 µM (≈ 1.87 to 14.9 µg/mL)
Compound: [C-]#[N+]c1ccccc1/C=C(\CC)c1ccccc1 [Compound 1]
bacteriostatic or bactericidal [2]: bacteriostatic

Compound: [C-]#[N+]c1ccccc1CP(=O)(OCC)OCC [Compound 4a]
Minimum inhibitory concentration (MIC), VRSA2 VRS 2 [3]: >128 µM
antimicrobial activity against MRSA (in words) [1]: complete loss of activity

Compound: [C-]#[N+]c1ccccc1/C=C(\CC)c1ccc(OC)cc1 [Compound 11]
toxicity to J774 cells [4, 9]: toxic

Compound: [C-]#[N+]c1ccccc1/C=C(\CC)c1cccc(C(F)(F)F)c1 [Compound 12]
toxicity to J774 cells [4, 9]: toxic

MIC [1]: ≥ 2 µM
reduction in the MIC against MRSA ([1]; relative to compound 1 (removal of the ethyl group)): two-to-eight fold
Solubility Analysis [5]: Low solubility
Permeability Analysis [6]: Not permeable
Compound: [C-]#[N+]c1ccccc1/C=C/c1ccccc1 [Compound 13]
toxicity to J774 cells [4, 9]: neither compound was toxic

Compound: [C-]#[N+]c1ccccc1/C=C/c1cccc(OC)c1 [Compound 15]
toxicity to J774 cells [4, 10]: exception

Compound: [C-]#[N+]c1ccccc1/C=C/c1cccc(F)c1 [Compound 19]
toxicity to J774 cells [4, 9]: toxic

MIC [1]: 4 to 64 µM (≈ 0.877 to 14 µg/mL)
Compound: [C-]#[N+]c1ccccc1/C=C/c1ccc(C)cc1 [Compound 23]
antimicrobial activity against MRSA (in words) [1]: active against all MRSA strains tested

Compound: [C-]#[N+]c1ccccc1/C=C/c1ccc(CCCC)cc1 [Compound 24]
antimicrobial activity against MRSA (in words) [1]: lacked activity against most MRSA strains tested

Compound: [C-]#[N+]c1ccccc1/C=C/c1ccc([N+](=O)[O-])cc1 [Compound 25]
toxicity to J774 cells ([4]; 32 µM, all not toxic, exception = toxic): exception
toxicity to J774 cells [4, 9]: toxic

Compound: [C-]#[N+]c1ccccc1C=C1CCCCC1 [Compound 26]
antimicrobial activity against MRSA (in words) [1]: inactive against several MRSA isolates

Compound: [C-]#[N+]c1ccccc1/C=C/c1ccccn1 [Compound 27]
antimicrobial activity against MRSA (in words) [1]: reduced antimicrobial activities

Compound: [C-]#[N+]c1ccccc1/C=C/c1cccnc1 [Compound 30]
antimicrobial activity against MRSA (in words) [1]: reduced antimicrobial activities
toxicity to J774 cells [4, 10]: exception

Compound: [C-]#[N+]c1ccccc1/C=C/c1ccncc1 [Compound 33]
antimicrobial activity against MRSA (in words) [1]: reduced antimicrobial activities

Compound: [C-]#[N+]c1ccc(/C=C/c2ccccc2)cc1 [Compound 37]
toxicity to J774 cells [4, 10]: exception

Compound: CC/C(=C\c1ccccc1)c1ccccc1 [Compound 42]
antimicrobial activity against MRSA (in words) [1]: complete loss in the anti-MRSA activity

Compound: N#Cc1ccccc1/C=C/c1ccccc1 [Compound 43]
antimicrobial activity against MRSA (in words) [1]: complete loss of antimicrobial activity

Compound: [C-]#[N+]c1ccccc1-c1ccccc1 [Compound 46]
antimicrobial activity against MRSA (in words) [1]: lacks activity against three strains of MRSA

Compound: [C-]#[N+]c1ccc(C)cc1-c1ccc(C(C)(C)C)cc1 [Compound 49]
antimicrobial activity against MRSA (in words) [1]: loss in antimicrobial activity

Compound: [C-]#[N+]c1ccc(C)cc1-c1ccc(C(F)(F)F)cc1 [Compound 50]
antimicrobial activity against MRSA (in words) [1]: loss in antimicrobial activity

Compound: [C-]#[N+]c1ccccc1CCc1ccccc1 [Compound 53]
antimicrobial activity against MRSA (in words) [1]: active against several strains

Permeability Analysis [7]: Low permeability
Papp A→B [8]: 0.23 ×10⁻⁶ cm/s
Compound: CNC(=C[N+](=O)[O-])NCCSCc1ccc(CN(C)C)o1 [Ranitidine]

Compound: COC(=O)[C@H]1[C@H]2C[C@@H]3c4[nH]c5cc(OC)ccc5c4CCN3C[C@H]2C[C@@H](OC(=O)c2cc(OC)c(OC)c(OC)c2)[C@@H]1OC [Reserpine, reference compound]
Solubility Analysis [5]: Low solubility
